Laboratory results from patent publication US9580458B2, “Polymorphic form of sodium hyodeoxycholate (NaHDC) and its preparation process” (PRODOTTI CHIMICI E […].P.A., priority 2013, dated 2017).
“Also recorded” adds a separate entry of the source.

Columns and labels:
Assay type in all cases: physicochemical
[1] = Dynamic vapour sorption (DVS) analysis in isotherm at 25° C.; conditions: for weight change at 0% RH in desorption / water still contained at the inflection at about 40% RH in desorption / weight change preserved in desorption up to 50% RH / weight change in sorption at 70% RH / weight change in sorption at 90% RH / weight change in sorption at 30% RH / change in weight in sorption at 20% RH: DVS isotherm 25° C.; for water still contained at the inflection at about 40% RH in desorption: about 40% RH (corresponds to about 4 water molecules); for weight change preserved in desorption up to 50% RH: stable up to 50% RH (corresponds to about 8 water molecules)
Procedure: (§1) To check the stability of the samples DVS (Dynamic vapour sorption) measurements were made using the DVS Intrinsic SMS instrument. The weight change of the sample associated with the change in humidity in a chamber at constant temperature was determined. Each sample was weighed in a range from […], with mass change equal to ±150 mg and mass resolution equal to ±0.1 μg, and positioned in the instrument and analysed at 25° C.±0.1 and 40° C.±0.1 in a relative humidity range comprised between 0% RH and 90% RH with increments of 10% RH, accuracy equal to ±1% RH. Moreover, the sample is brought from 0-90-0% RH with stages of 10% RH. The duration of these stages is as a function of the stabilization of the weight: if the weight change remains less than 0.002 dm (%)/dt (min) for 10 min, it goes on to the next stage. However, the stabilization for each stage cannot last more than 6 hours and in that case the instrument passes on to the next stage. The last stage contemplates the stabilization of the sample at 0% RH for 4 hours.
In order to verify the stability of the samples DVS (Dynamic vapour sorption) measurements were carried out using the DVS Intrinsic SMS instrument. The weight change of the sample associated with the change in humidity in a chamber at constant temperature was determined. Each sample was positioned in the instrument and analysed at 25° C.±0.1 in a humidity range that ranges from 0% to 90% RH with increments of 10% RH, RH accuracy equal to ±1% RH. The sample is stabilized at 0% RH for 4 hours. The duration of the single stages is as a function of the stabilization of the weight: if the weight change remains less than 0.002 dm (%)/dt (min) for 10 min, it goes on to the next stage. The stabilization cannot last more than 6 hours and in that case it passes on to the next stage. The last stage contemplates the stabilization of the sample at 0% RH for 4 hours.
(§2) To check the stability of the samples DVS (Dynamic vapour sorption) measurements were made using the DVS Intrinsic SMS instrument. The weight change of the sample associated with the change in humidity in a chamber at constant temperature was determined. Each sample was positioned in the instrument and analysed at 25° C.±0.1 in a humidity range from 0% RH to 90% RH with increments of 10% RH, accuracy equal to ±1% RH. The sample is stabilized at 0% RH for 4 hours. The duration of the single stages is as a function of the stabilization of the weight: if the weight change remains less than 0.002 dm (%)/dt (min) for 10 min, it goes on to the next stage. The stabilization cannot last more than 6 hours and in that case it passes on to the next stage. The last stage contemplates the stabilization of the sample at 0% RH for 4 hours.

[2] = Dynamic vapour sorption (DVS) analysis in isotherm at 40° C.; conditions: DVS isotherm 40° C.
Procedure: as §1
as §2, with “Each sample is positioned in” for “Each sample was positioned in”, “analysed at 40° C.±0.1 in” for “analysed at 25° C.±0.1 in”, “from 0% to 90%” for “from 0% RH to 90%”, “10% RH, RH accuracy equal” for “10% RH, accuracy equal”, “of the weight, if the” for “of the weight: if the”

[3] = Thermal stability by DSC and XPRD at variable temperature; conditions: for temperature up to which the form is stable: DSC / XPRD at variable temperature
Procedure: The thermal properties of the polymorphic forms described were obtained through differential scanning calorimetry (DSC). The DSC profiles were obtained with a heat flow instrument DSC 200 F3 Maia® (Netzsch). The DSC 200 F3 Maia® instrument was calibrated for temperature and enthalpy with an indium standard (melting point: 156.6° C.; ΔHf=28.45 Jg^−1). The samples were analysed according to the following conditions: • temperature range: 25-350° C.; • heating rate: 10° C./min; • sample-holder: perforated aluminium crucible; • gas: anhydrous nitrogen at a flow rate of 60 mL/min.
In order to determine the X-ray powder diffraction profiles (XPRD) a diffractometer Panalytical X'Pert Pro equipped with detector X'Celerator and X-ray tube (PW3373/00 Cu LFF DK312503) with current intensity 40 mA and voltage 40 kV was used. The instrument was calibrated with a silicon powder standard PANalytical640. The sample was positioned on a glass sample-carrier and analysed using the following parameters: • Scanning range(°): 3.0010-39.9997 • Data acquisition range(°): 0.0167 • Scanning mode: Continuous • Counter time (s): 12,700 • soller slits (rad): 0.04 • divergence slits: ¼ • anti-scatter slits: ½

[4] = Reprecipitation of FI/FII 1:1 (w/w) in ethyl acetate, 48 hours at 25° C., XPRD of the solid
Procedure: Into a 2 liter jacketed reactor 1000 ml of ethyl acetate (EtOAc) is loaded, the mechanical stirrer is actuated setting the rate to 200 rpm and then 25 g of polymorphic form FI and 25 g of polymorphic form FII are slowly added. It is left under stirring for 48 hours at a temperature of 25° C.
It is filtered on buckner and the white solid obtained is washed with 50 ml of EtOAc (1 Volume with respect to the loaded total dry solid NaHDC polymorphic form FI and NaHDC polymorphic form FII).

[5] = Stability tests according to guidelines ICH Q1A at 25° C./60% RH and 40° C./75% RH
[6] = Stability of the polymorphic form in the formulation of a medicinal product; conditions: inserted into the formulation of a medicinal product
[7] = listed as mixture of forms of NaHDC

Compound	weight change at 0% RH in desorption [1]	water still contained at the inflection at about 40% RH in desorption [1]	weight change preserved in desorption up to 50% RH [1]	weight change in sorption at 70% RH [1]	weight change in sorption at 90% RH [1]	weight change at 0% RH in desorption ([2]; desorption)	weight change in sorption at 70% RH ([2]; sorption)	weight change in sorption at 90% RH ([2]; sorption)	temperature up to which the form is stable [3] [°C]	weight change in sorption at 30% RH [1]	also measured
C[C@H](CCC(=O)[O-])[C@H]1CC[C@H]2[C@@H]3C[C@H](O)[C@@H]4C[C@H](O)CC[C@]4(C)[C@H]3CC[C@]12C.[Na+] [polymorphic form FII, sodium 3α,6α-dihydroxy-5β,-cholan-24-oate]	zero	about 18%	about 34%	less than 2%	about 35%	about 6%	less than 2%	about 45%	260	–	hygroscopic behaviour ([1]; humidity sorption cycle in isotherm at 25° C. and at 40° C. (FIGS. 10-13, 27, 28, 58)): non-hygroscopic; shape of the desorption curve at 50-40% RH ([2]; desorption, 50-40% RH): plateau; relative humidity up to which the sample is stable in sorption ([2]; sorption): about 70 % RH; temperature of conversion into the polymorphic form FI on heating ([3]; heating, solid-solid conversion into form FI): 280 °C; thermodynamic stability among the forms ([4]; room temperature): most thermodynamically stable one at room temperature and up to 260 °C; also recorded: most thermodynamically stable form at room temperature; stability with regard to humidity in ICH Q1A tests [5]: surprising and unforeseeable stability with regard to humidity both at 25 °C and at 40 °C; stability over time in the formulation (interconversion into other polymorphic forms) [6]: stable over time
C[C@H](CCC(=O)[O-])[C@H]1CC[C@H]2[C@@H]3C[C@H](O)[C@@H]4C[C@H](O)CC[C@]4(C)[C@H]3CC[C@]12C.[Na+] [amorphous form of NaHDC, sodium 3α,6α-dihydroxy-5β,-cholan-24-oate]	weight that is less than the starting weight	about 17%	about 34%	22%	about 35%	–	–	–	–	about 6%	–
C[C@H](CCC(=O)[O-])[C@H]1CC[C@H]2[C@@H]3C[C@H](O)[C@@H]4C[C@H](O)CC[C@]4(C)[C@H]3CC[C@]12C.[Na+] [polymorphic form FI, sodium 3α,6α-dihydroxy-5β,-cholan-24-oate]	zero	about 18%	about 34%	–	about 35%	zero	8%	about 43%	280	about 2%	change in weight at the plateau at 50-40% RH in desorption ([2]; desorption, 50-40% RH): about 17%; weight change in sorption at 30% RH ([2]; sorption, 30% RH): about 2%; interconversion of the polymorphic form on reprecipitation ([4]; FI and FII 1:1 weight/weight, ethyl acetate, 48 hours, room temperature (20-25° C.)): completely converts into the polymorphic form FII; also recorded: interconverts into the polymorphic form FII
C[C@H](CCC(=O)[O-])[C@H]1CC[C@H]2[C@@H]3C[C@H](O)[C@@H]4C[C@H](O)CC[C@]4(C)[C@H]3CC[C@]12C.[Na+] [NaHDC mixture, sodium 3α,6α-dihydroxy-5β,-cholan-24-oate]	–	about 18%	about 34%	–	about 35%	–	–	–	–	–	water still contained at the inflection at about 40% RH in desorption [1, 7]: about 18%; change in weight in sorption at 20% RH [1]: about 3%; change in weight in sorption at 20% RH [1, 7]: about 3%; weight change in sorption at 70% RH [1, 7]: 15%
